Results taken from patent US8912121B2, “Herbicidal compositions comprising 4-amino-3-chloro-5-fluoro-6-(4-chloro-2-fluoro-3-methoxyphenyl)pyridine-2-carboxylic acid or a derivative thereof and certain PS II inhibitors” (Dow Agrosciences LLC, priority 2012, dated 2014).

Experiments:
[1] = system: LEFCH (Leptochloa chinensis, Chinese sprangletop); assay: In-water applied mixtures, transplanted paddy rice, greenhouse; assay type: in vivo, Leptochloa chinensis (L.) Nees
Procedure: Weed seeds or nutlets of the desired test plant species were planted in puddled soil (mud) prepared by mixing a shredded, non-sterilized mineral soil (50.5 percent silt, 25.5 percent clay, and 24 percent sand, with a pH of about 7.6 and an organic matter content of about 2.9 percent) and water at a 1:1 volumetric ratio. The prepared mud was dispensed in 365 mL aliquots into 16-ounce (oz.) non-perforated plastic pots with a surface area of 86.59 square centimeters (cm^2) leaving a headspace of 3 centimeters (cm) in each pot Mud was allowed to dry overnight prior to planting or transplanting. Rice seeds were planted in Sun Gro MetroMix® 306 planting mixture, which typically has a pH of 6.0 to 6.8 and an organic matter content of about 30 percent, in plastic plug trays. Seedlings at the second or third leaf stage of growth were transplanted into 840 mL of mud contained in 32-oz. non-perforated plastic pots with a surface area of 86.59 cm^2 4 days prior to herbicide application. The paddy was created by filling the headspace of the pots with 2.5 to 3 cm of water. When required to ensure good germination and healthy plants, a fungicide treatment and/or other chemical or physical treatment was applied. The plants were grown for 4-22 days in a greenhouse with an approximate 14 h photoperiod which was maintained at about 29° C during the day and 26° C. during the night. Nutrients were added as Osmocote® (19:6:12, N:P:K+ minor nutrients) at 2 g per 16-oz. pot and 4 g per 32-oz. pot. Water was added on a regular basis to maintain the paddy flood, and supplemental lighting was provided with overhead metal halide 1000-Watt lamps as necessary. The plants were employed for testing when they reached the first through fourth true leaf stage.
Treatments consisted of the acid or esters of 4-amino-3-chloro-5-fluoro-6-(4-chloro-2-fluoro-3-methoxy-phenyl)pyridine-2-carboxylic acid (compound A) each formulated as an SC (suspension concentrate) and various herbicidal components alone and in combination. Forms of compound A were applied on an acid equivalent basis.
Other herbicidal components were applied on an active ingredient basis and included photosystem II (PSII)-inhibits propanil formulated as […] bentazon-sodium formulated as Basagran®, and simetryne (technical grade material).
Treatment requirements for each compound or herbicidal component were calculated based upon the rates being tested, the concentration of active ingredient or acid equivalent in the formulation, an application volume of 2 mL per component per pot, and an application area of 86.59 cm^2 per pot.
For formulated compounds, a measured amount was placed in an individual 100 or 200 mL glass vial and was dissolved in a volume of 1.25% (v/v) Agri-Dex® crop oil concentrate to obtain application solutions.
For technical grade compounds, a weighed amount was placed in an individual 100 to 200 mL glass vial and was dissolved in a volume of acetone to obtain concentrated stock solutions. […] The concentrated stock solutions obtained were diluted with an equivalent volume of an aqueous mixture containing 2.5% (v/v) crop oil concentrate so that the final application solutions contained 1.25% (v/v) crop oil concentrate.
Applications were made by injecting with a pipetter appropriate amounts of the application solutions, individually and sequentially, into the aqueous layer of the paddy. Control plants were treated in the same manner with the solvent blank. Applications were made so that all treated plant material received the same concentrations of acetone and crop oil concentrate.
The treated plants and control plants were placed in a greenhouse as described above and water was added as needed to maintain a paddy flood. After approximately 3 weeks the condition of the test plants as compared with that of the untreated plants was determined visually and scored on a scale of 0 to 100 percent where 0 corresponds to no injury or growth inhibition and 100 corresponds to complete kill. […]

[2] = system: GALAP (Galium aparine, catchweed bedstraw); assay: Postemergence herbicidal activity of mixtures in cereal crops, greenhouse; assay type: in vivo, Galium aparine L.
Procedure: (§1) Seeds of the desired test plant species were planted in Sun Gro MetroMix® 306 planting mixture, which typically has a pH of 6.0 to 6.8 and an organic matter content of about 30 percent, in plastic pots with a surface area of 103.2 square centimeters (cm^2). When required to ensure good germination and healthy plants, a fungicide treatment and/or other chemical or physical treatment was applied. The plants were grown for 7-36 days in a greenhouse with an approximate 14 hour photoperiod which was maintained at about 18° C. during the day and about 17° C. during the night. Nutrients and water were added on a regular basis and supplemental lighting was provided with overhead metal halide 1000-Watt lamps as necessary. The plants were employed for testing when they reached the second or third true leaf stage.
(§2) Treatments consisted of the benzyl ester of 4-amino-3-chloro-5-fluoro-6-(4-chloro-2-fluoro-3-methoxy-phenyl)pyridine-2-carboxylic acid (Compound A), formulated as an SC, a second cereal herbicide alone and then both in combination.
(§3) Other herbicidal components were applied on an active ingredient basis and included PSII-inhibiting herbicides.
(§4) Measured aliquots of benzyl ester of 4-amino-3-chloro-5-fluoro-6-(4-chloro-2-fluoro-3-methoxy-phenyl)pyridine-2-carboxylic acid (Compound A) were placed in 25 milliliter (mL) glass vials and diluted in a volume of 1.25% (v/v) Agri-Dex® crop oil concentrate to obtain stock solutions. Compound requirements are based upon a 12 mL application volume at a rate of 187 liters per hectare (L/ha). Spray solutions of the second cereal herbicide and experimental compound mixtures were prepared by adding the stock solutions to the appropriate amount of dilution solution to form 12 mL spray solution with active ingredients in two- and three-way combinations. Formulated compounds were applied to the plant material with an overhead Mandel track sprayer equipped with an 8002E nozzle calibrated to deliver 187 L/ha over an application area of 0.503 square meters (m^2) at a spray height of 18 inches (46 cm) above average plant canopy. Control plants were sprayed in the same manner with the solvent blank.
(§5) The treated plants and control plants were placed in a greenhouse as described above and watered by sub-irrigation to prevent wash-off of the test compounds. After 20-22 days, the condition of the test plants as compared with that of the control plants was determined visually and scored on a scale of 0 to 100 percent where 0 corresponds to no injury and 100 corresponds to complete kill.
(§6) Colby's equation was used to determine the herbicidal effects expected from the mixtures (Colby, S. R. 1967. Calculation of the synergistic and antagonistic response of herbicide combinations. Weeds 15:20-22).
(§7) The following equation was used to calculate the expected activity of mixtures containing two active ingredients, A and B: Expected=A+B−(A×B/100)

[3] = system: SINAR (Sinapis arvensis, wild mustard); assay: as above; assay type: in vivo, Sinapis arvensis L.
Procedure: as §1, §2, §3, §4, §5, §6, §7

[4] = system: CHEAL (Chenopodium album, common lambsquarters); assay: as above; assay type: in vivo, Chenopodium album L.
Procedure: as §1, §2, §3, §4, §5
Colby's equation was used to determine the herbicidal effects expected from the mixtures (Colby, S. R. 1967. Calculation of the synergistic and antagonistic response of herbicide combinations. Weeds 15:20-22). […]

[5] = Compound A Benzyl Ester 5 g ai/ha

Structure (SMILES): COc1c(Cl)ccc(-c2nc(C(=O)O)c(Cl)c(N)c2F)c1F [Compound A Acid, 4-amino-3-chloro-6-(4-chloro-2-fluoro-3-methoxyphenyl)-5-fluoropyridine-2-carboxylic acid]
- Visual Weed Control (%) Obs ([1]; 8.75 g ae/ha, 21 DAA): 0%
- Visual Weed Control (%) Obs ([1]; 17.5 g ae/ha, 21 DAA): 0%
- Visual Weed Control (%) Obs ([1]; 42.4 g ae/ha, 20 DAA): 15%
- Visual Weed Control (%) Obs ([1]; 84.8 g ae/ha, 20 DAA): 55%

Structure (SMILES): COc1c(Cl)ccc(-c2nc(C(=O)OCc3ccccc3)c(Cl)c(N)c2F)c1F [Compound A Benzyl Ester, benzyl ester of 4-amino-3-chloro-5-fluoro-6-(4-chloro-2-fluoro-3-methoxy-phenyl)pyridine-2-carboxylic acid]
- Visual Weed Control (%) - 21 DAA GALAP Obs [2, 5]: 66%
- Visual Weed Control (%) - 21 DAA GALAP Obs ([2]; Compound A Benzyl Ester 10 g ai/ha): 77%
- Visual Weed Control (%) Obs ([1]; 8.75 g ae/ha, 21 DAA): 20%
- Visual Weed Control (%) Obs ([1]; 17.5 g ae/ha, 21 DAA): 30%
- Visual Weed Control (%) Obs ([1]; 35 g ae/ha, 21 DAA): 55%
- Visual Weed Control (%) Obs ([1]; 70 g ae/ha, 20 DAA): 80%
- Visual Weed Control (%)-21 DAA SINAR Obs ([3]; Compound A Benzyl Ester 2.5 g ai/ha, Table 21): 70%
- Visual Weed Control (%)-21 DAA SINAR Obs ([3]; Compound A Benzyl Ester 2.5 g ai/ha, Table 22): 70%
- Visual Weed Control (%)-21 DAA SINAR Obs ([3]; Compound A Benzyl Ester 5 g ai/ha, Table 21): 73%
- Visual Weed Control (%)-21 DAA SINAR Obs ([3]; Compound A Benzyl Ester 5 g ai/ha, Table 22): 73%
- Visual Weed Control (%)-21 DAA CHEAL Obs ([4]; Compound A Benzyl Ester 2.5 g ai/ha): 50%
- Visual Weed Control (%)-21 DAA CHEAL Obs [4, 5]: 58%
